Laboratory results reported in US7728033B2, “Mycophenolate mofetil in diabetic nephropathy” (Clinigene International Private Limited, priority 2003, dated 2010).

How the values were obtained:
[1] = tested on: patients with diabetic nephropathy; experiment: 24-hour urine protein (proteinuria), open-labeled randomized study; format: in vivo, human; set-up: Mean 24 h Urine protein, 1 month after treatment at V3 / Result Difference 24 h Urine protein, V3 (1 month) vs baseline V2 / Mean 24 h Urine protein, 3 month after treatment at V4: unit not given here
Protocol: In this study, a total of 30 patients were planned of which 18 were randomized and subjected to enter into one of the studies in which the patient groups each received MMF alone, lisinopril alone, or a combination of both MMF and lisinopril.
The primary end-point for this study was the proteinuria value obtained from the patients via 24-hour urine protein which was measured using the Calorimetric method Pyrogallol Red/SDS liquid stable single reagent.
(§1) Evaluation of the effects of MMF or ACE inhibitors alone or in combination on the status of proteinuria in patients with diabetic nephropathy was an open-labeled, randomized study. This study consisted of three arms as shown below. • 1. treatment with MMF alone • 2. treatment with combination of MMF and lisinopril • 3. treatment with lisinopril alone In addition, there were three phases of the study as shown below.
Phase 2: Treatment Phase (6 months): Every patient who qualified the screening phase was assigned one of the treatment arms. During this phase, patients were monitored closely and efficacy and safety parameters are assessed every month.
(§2) Study Products and Dosage: • 1. MMF: The dose of MMF given during the study was 500 mg per oral twice a day throughout the study. • 2. Lisinopril: The starting dose of lisinopril given in the study was 5 mg per oral twice a day. In case of hypertensive patients, the dose could be titrated upwards based on investigator's discretion, which in turn was based on the patient's “safety end point”. • 3. MMF+Lisinopril: In the patients who received both the drugs, the dose of MMF was 500 mg per oral twice a day and lisinopril was 5 mg per oral twice a day. In the case of hypertensive patients, the dose of lisinopril could be titrated upwards based on investigator's discretion, which in turn was based on the patient's “safety end point”.

[2] = tested on: patients with diabetic nephropathy; experiment: Estimated GFR (Cockcroft-Gault formula), open-labeled randomized study; format: in vivo, human
Protocol: A secondary end-point for this study was the GFR value obtained for each patient. This Secondary Endpoint included Estimated GFR, which was calculated using the following formulae: […]
Once all data was collected, Glomerular Filtration Rate GFR) was determined by the Cockcroft-Gault formula.
as §1, §2

[3] = tested on: patients with type 1 diabetes mellitus and diabetic nephropathy; settings: cited from earlier work
[4] = tested on: patients with IgA nephropathy; settings: MMF 1-1.5g per day vs Prednisone 30-40 mg per day; followed to 72 weeks; preliminary report; cited from earlier work
[5] = tested on: Diabetic rats; settings: 8 months; cited from earlier work
[6] = tested on: patients with lupus nephritis; settings: systemic lupus erythomatosis; 0.5 to 1.5 g/d; cited from earlier work
[7] = Benefited patients, lisinopril alone 5 mg twice daily
[8] = Not benefited patients, lisinopril alone 5 mg twice daily
[9] = Benefited patients, MMF alone 500 mg per oral twice a day
[10] = Benefited patients, MMF alone 500 mg twice daily
[11] = Not benefited patients, MMF alone 500 mg per oral twice a day
[12] = Not benefited patients, MMF alone 500 mg twice daily

NCCCC[C@H](N[C@@H](CCc1ccccc1)C(=O)O)C(=O)N1CCC[C@H]1C(=O)O [lisinopril]
Mean 24 h Urine protein, 1 month after treatment at V3 [1, 7]: 236.66
Mean 24 h Urine protein, 3 month after treatment at V4 [1, 7]: 161.15
Mean 24 h Urine protein, 6 month after treatment at V5 [1, 7]: 248.4
Result Difference 24 h Urine protein, V3 (1 month) vs baseline V2 [1, 7]: −133.6
Result Difference 24 h Urine protein, V4 (3 month) vs baseline V2 [1, 7]: −268.75
Result Difference 24 h Urine protein, V5 (6 month) vs baseline V2 [1, 7]: −239.6
Mean 24 h Urine protein, 1 month after treatment at V3 [1, 8]: 211.25
Mean 24 h Urine protein, 3 month after treatment at V4 [1, 8]: 289.2
Mean 24 h Urine protein, 6 month after treatment at V5 [1, 8]: 626
Result Difference 24 h Urine protein, V3 (1 month) vs baseline V2 [1, 8]: 53.73
Result Difference 24 h Urine protein, V4 (3 month) vs baseline V2 [1, 8]: 101.47
Result Difference 24 h Urine protein, V5 (6 month) vs baseline V2 [1, 8]: 254.2
patients with reduced proteinuria ([1]; lisinopril alone 5 mg twice daily, at the end of 1 month): 42%
patients with reduced proteinuria ([1]; lisinopril alone 5 mg twice daily, at the end of 3 month): 40%
patients with reduced proteinuria ([1]; lisinopril alone 5 mg twice daily, at the end of 6 month): 50%
Mean GFR, 1 month after treatment at V3 [2, 7]: 79.16 mL/min
Mean GFR, 3 month after treatment at V4 [2, 7]: 89.55 mL/min
Mean GFR, 6 month after treatment at V5 [2, 7]: 105.9 mL/min
Result Difference GFR, V3 (1 month) vs baseline V2 [2, 7]: -0.09 mL/min
Result Difference GFR, V4 (3 month) vs baseline V2 [2, 7]: 7.95 mL/min
Result Difference GFR, V5 (6 month) vs baseline V2 [2, 7]: 28.5 mL/min
Mean GFR, 1 month after treatment at V3 [2, 8]: 63.97 mL/min
Mean GFR, 3 month after treatment at V4 [2, 8]: 68.76 mL/min
Mean GFR, 6 month after treatment at V5 [2, 8]: 76.4 mL/min
Result Difference GFR, V3 (1 month) vs baseline V2 [2, 8]: 1.91 mL/min
Result Difference GFR, V4 (3 month) vs baseline V2 [2, 8]: 0.13 mL/min
Result Difference GFR, V5 (6 month) vs baseline V2 [2, 8]: -9.4 mL/min

C[C@H](CS)C(=O)N1CCC[C@H]1C(=O)O [Captopril]
progression of renal disease [3]: prevents or delays the progression of renal disease

COc1c(C)c2c(c(O)c1C/C=C(\C)CCC(=O)OCCN1CCOCC1)C(=O)OC2 [MMF, mycophenolate mofetil]
Mean 24 h Urine protein, 1 month after treatment at V3 [1, 9]: 112.73
Result Difference 24 h Urine protein, V3 (1 month) vs baseline V2 [1, 9]: −203.93
Mean 24 h Urine protein, 3 month after treatment at V4 [1, 10]: 260.8
Result Difference 24 h Urine protein, V4 (3 month) vs baseline V2 [1, 10]: −136.6
patients with reduced proteinuria ([1]; MMF alone 500 mg twice daily, at V4 at the end of 3 months): 67%
patients with reduced proteinuria ([1]; MMF alone, after 1 month of treatment (V3 vs V2)): 67%
Mean 24 h Urine protein, 1 month after treatment at V3 [1, 11]: 696.3
Result Difference 24 h Urine protein, V3 (1 month) vs baseline V2 [1, 11]: 361.7
Mean 24 h Urine protein, 3 month after treatment at V4 [1, 12]: 305.5
Mean GFR, 1 month after treatment at V3 [2, 9]: 89.3 mL/min
Result Difference GFR, V3 (1 month) vs baseline V2 [2, 9]: 0.27 mL/min
Mean GFR, 3 month after treatment at V4 [2, 10]: 81.85 mL/min
Result Difference GFR, V4 (3 month) vs baseline V2 [2, 10]: -1.35 mL/min
Mean GFR, 1 month after treatment at V3 [2, 11]: 75.26 mL/min
Result Difference GFR, V3 (1 month) vs baseline V2 [2, 11]: 4.40 mL/min
Mean GFR, 3 month after treatment at V4 [2, 12]: 49.9 mL/min
decreasing proteinuria, protecting renal function and decreasing blood lipid levels [4]: superior to Prednisone
albuminuria, glomerular macrophage infiltration and glomerulosclerosis [5]: did prevent
effect on blood pressure, glomerular dynamics or blood glucose levels [5]: no effect
tolerability [6]: well tolerated
